According to patent US20250084097A1, “MACROCYCLIC AMIDE COMPOUNDS AND APPLICATION THEREOF” (Medshine Discovery Inc., priority 2021, published 2025):

Tests used:
EGFR (L858R/T790M/C797S) = target: T1, EGFR (L858R/T790M/C797S) (Homo sapiens, UniProt P00533, C797S/L858R/T790M); assay: Kinase inhibitory activity, 33P-ATP filtration-binding (Reaction Biology Corp.); assay type: biochemical; conditions: ATP 100 μM; read-out: Kinase half-maximal inhibition concentration IC50 EGFR(L858R/T790M/C797S)
T1 construct: Reaction Biology Corp. (assay performed there)
T1 sequence (P00533 25-1210 T790M/C797S/L858R): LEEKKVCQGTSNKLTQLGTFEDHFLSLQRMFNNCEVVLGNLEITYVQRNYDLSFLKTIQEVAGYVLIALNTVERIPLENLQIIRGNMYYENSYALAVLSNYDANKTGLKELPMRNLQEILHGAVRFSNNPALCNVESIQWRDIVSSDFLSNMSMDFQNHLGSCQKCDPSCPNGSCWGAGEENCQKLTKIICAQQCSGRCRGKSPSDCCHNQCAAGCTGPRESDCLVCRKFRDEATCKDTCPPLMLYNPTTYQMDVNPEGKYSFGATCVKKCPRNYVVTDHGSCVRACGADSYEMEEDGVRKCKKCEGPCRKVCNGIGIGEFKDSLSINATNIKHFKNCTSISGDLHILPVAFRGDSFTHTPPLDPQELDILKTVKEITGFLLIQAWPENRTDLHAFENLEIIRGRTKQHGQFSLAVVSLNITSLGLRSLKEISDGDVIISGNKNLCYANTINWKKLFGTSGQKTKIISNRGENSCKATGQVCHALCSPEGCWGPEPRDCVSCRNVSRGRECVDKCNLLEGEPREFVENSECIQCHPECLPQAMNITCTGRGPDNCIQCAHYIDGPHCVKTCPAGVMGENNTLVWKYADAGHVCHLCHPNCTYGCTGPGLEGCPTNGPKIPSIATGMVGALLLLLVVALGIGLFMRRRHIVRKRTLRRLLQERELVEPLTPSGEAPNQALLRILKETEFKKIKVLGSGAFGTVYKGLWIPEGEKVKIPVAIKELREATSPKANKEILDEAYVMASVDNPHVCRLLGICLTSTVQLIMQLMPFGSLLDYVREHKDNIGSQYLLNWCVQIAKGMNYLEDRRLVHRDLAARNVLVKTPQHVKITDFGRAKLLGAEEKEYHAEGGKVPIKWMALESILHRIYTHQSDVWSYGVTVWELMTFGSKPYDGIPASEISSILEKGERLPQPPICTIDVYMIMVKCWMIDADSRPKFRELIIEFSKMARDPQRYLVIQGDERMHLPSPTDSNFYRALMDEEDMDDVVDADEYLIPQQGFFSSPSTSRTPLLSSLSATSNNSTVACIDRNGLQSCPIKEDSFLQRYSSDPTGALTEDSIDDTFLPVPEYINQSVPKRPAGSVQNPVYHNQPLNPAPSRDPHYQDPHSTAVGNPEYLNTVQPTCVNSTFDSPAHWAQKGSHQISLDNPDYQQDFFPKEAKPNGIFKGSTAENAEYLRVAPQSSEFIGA
Method: (§1) Compound assay for kinase inhibitory activity against EGFR (L858R/T790M/C797S), EGFR (del19-E746-A750/T790M/C797S), and EGFR (WT) was done at Reaction Biology Corp. In reaction buffer (20 mM Hepes (pH 7.5), 10 mM magnesium chloride (MgCl2), 1 mM ethylenebis(oxyethylenenitrilo)tetraacetic acid (EGTA), 0.02% polyethylene glycol monododecyl ether (Brij35), 0.02 mg/ml BSA, 0.1 mM sodium vanadate (Na3VO4), 2 mM dithiothreitol (DTT), 1% DMSO), a certain concentration of substances, coenzyme factors, kinases and test compounds (10 doses, 3-fold serial dilutions, 2% DMSO final concentration) were added in sequence, and mixed well. The mixture was incubated at room temperature for 20 minutes. A certain concentration of ^33P-ATP was added to the reaction mixture to initiate reaction, followed by incubation at room temperature for 120 minutes. Finally, the radioactivity of the reactants was detected by filtration-binding method. The final kinase activity was expressed as the ratio of the remaining kinase activity of the test sample to the kinase activity of the DMSO control group. The dose-response relationship curve was fitted and IC50 was calculated using GraphPad software.

EGFR (WT) = target: T2, EGFR (WT) (Homo sapiens, UniProt P00533); assay: as above; assay type: biochemical; conditions: ATP 100 μM; read-out: Kinase half-maximal inhibition concentration IC50 EGFR(WT)
T2 construct: Reaction Biology Corp. (assay performed there)
Method: as §1

[1] = target: T3, EGFR (del19-E746-A750/T790M/C797S) (Homo sapiens, UniProt P00533, C797S/DEL746-750/T790M); assay: as above; assay type: biochemical; conditions: ATP 100 μM; read-out: Kinase half-maximal inhibition concentration IC50 EGFR(del19-E746-A750/T790M/C797S)
T3 construct: Reaction Biology Corp. (assay performed there)
T3 sequence (P00533 with tags, fused parts or gaps DEL746-750/T790M/C797S): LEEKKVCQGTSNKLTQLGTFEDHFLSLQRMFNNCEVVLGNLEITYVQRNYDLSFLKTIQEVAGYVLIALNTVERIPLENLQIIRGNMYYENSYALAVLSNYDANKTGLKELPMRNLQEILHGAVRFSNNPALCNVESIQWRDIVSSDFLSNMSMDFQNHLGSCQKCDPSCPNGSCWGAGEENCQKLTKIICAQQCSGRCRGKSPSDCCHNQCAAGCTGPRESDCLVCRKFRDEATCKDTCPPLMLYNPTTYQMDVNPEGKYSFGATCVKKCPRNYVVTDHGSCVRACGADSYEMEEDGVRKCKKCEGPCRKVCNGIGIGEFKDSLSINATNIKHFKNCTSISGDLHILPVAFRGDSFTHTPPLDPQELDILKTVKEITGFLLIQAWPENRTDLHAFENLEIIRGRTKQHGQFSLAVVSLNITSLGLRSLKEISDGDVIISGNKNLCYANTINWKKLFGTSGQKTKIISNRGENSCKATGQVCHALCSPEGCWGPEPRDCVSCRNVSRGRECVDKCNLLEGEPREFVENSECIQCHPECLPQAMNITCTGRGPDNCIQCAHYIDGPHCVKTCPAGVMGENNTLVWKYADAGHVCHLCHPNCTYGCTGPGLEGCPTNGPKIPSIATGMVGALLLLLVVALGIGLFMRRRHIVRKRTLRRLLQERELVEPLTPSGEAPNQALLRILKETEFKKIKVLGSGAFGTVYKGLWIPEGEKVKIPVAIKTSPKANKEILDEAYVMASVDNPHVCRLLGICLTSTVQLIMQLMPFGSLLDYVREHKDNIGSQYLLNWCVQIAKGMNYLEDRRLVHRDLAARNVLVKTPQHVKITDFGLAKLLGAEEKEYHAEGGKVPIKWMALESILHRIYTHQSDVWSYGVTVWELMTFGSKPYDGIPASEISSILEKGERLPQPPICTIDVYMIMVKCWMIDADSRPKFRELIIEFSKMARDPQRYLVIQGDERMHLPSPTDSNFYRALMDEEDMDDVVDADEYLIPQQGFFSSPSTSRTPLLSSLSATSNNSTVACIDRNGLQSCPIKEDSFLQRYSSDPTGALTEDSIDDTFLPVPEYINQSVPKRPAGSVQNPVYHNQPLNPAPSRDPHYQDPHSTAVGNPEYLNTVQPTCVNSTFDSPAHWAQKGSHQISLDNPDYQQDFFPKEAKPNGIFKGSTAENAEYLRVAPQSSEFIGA
Method: as §1

CYP1A2 = target: T4, CYP1A2 (Homo sapiens, UniProt P05177); assay: Cytochrome P450 isoenzyme inhibition, human liver microsomes; assay type: in vitro ADME; conditions: read-out: Cytochrome P450 isoenzyme inhibitory concentration CYP1A2
T4 construct: from tissue; host or cells: human liver microsomes
T4 sequence (P05177 whole entry): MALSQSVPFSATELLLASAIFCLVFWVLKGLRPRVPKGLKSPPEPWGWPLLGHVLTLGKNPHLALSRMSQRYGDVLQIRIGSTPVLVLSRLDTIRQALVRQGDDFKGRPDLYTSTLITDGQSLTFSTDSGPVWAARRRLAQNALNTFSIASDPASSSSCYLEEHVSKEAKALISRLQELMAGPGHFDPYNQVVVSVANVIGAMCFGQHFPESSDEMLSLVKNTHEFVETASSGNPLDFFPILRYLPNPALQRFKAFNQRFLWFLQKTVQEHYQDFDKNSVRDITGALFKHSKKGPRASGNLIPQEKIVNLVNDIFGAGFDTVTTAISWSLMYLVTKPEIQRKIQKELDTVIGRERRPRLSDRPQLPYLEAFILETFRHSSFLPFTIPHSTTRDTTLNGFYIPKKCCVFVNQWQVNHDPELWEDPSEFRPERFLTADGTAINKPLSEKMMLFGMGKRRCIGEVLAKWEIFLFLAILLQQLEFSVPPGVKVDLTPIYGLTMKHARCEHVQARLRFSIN
Method: (§2) The purpose of this study was to determine the inhibitory effect of test compounds on the activity of human liver microsomal cytochrome P450 isoenzymes (CYP1A2, CYP2C9, CYP2C19, CYP2D6 and CYP3A4).
(§3) Working solutions (100×final concentration) with concentrations of 5.00, 1.50, 0.500, 0.150, 0.0500, 0.0150, and 0.00500 mM were prepared by gradient dilution of the test compound (10.0 mM), while working solutions of each positive inhibitor and its specific substrate mixtures of P450 isozymes (CYP1A2, CYP2C9, CYP2C19, CYP2D6, and CYP3A4) were prepared; human liver microsomes stored in a refrigerator below −60° C. were thawed on ice; after all the human liver microsomes were thawed, the human liver microsomes were diluted with Potassium phosphate buffer (PB) to prepare a certain concentration of working solution (0.253 mg/ml).
(§4) First, 20.0 μL of the substrate mixture was added to a reaction plate (20.0 μL of PB was added to the Blank well), then 158 μL of human liver microsomal working solution was added to the reaction plate, and the reaction plate was placed on ice for use; at this time, 2.00 μL of each concentration of the test compound (N=1) and specific inhibitor (N=2) were added to the corresponding wells, and to the group without inhibitor (test compound or positive inhibitor) was added the corresponding organic solvent as control samples (1:1 DMSO:MeOH for the control sample of the test compound, and 1:9 DMSO:MeOH for all the positive control samples); after pre-incubation in a water bath at 37° C. for 10 min, 20.0 μL of cofactor (NADPH) solution was added to the reaction plate, and the reaction plate was incubated in a water bath at 37° C. for 10 min; The reaction was terminated by adding 400 μL of pre-cooled acetonitrile solution (containing 200 ng/mL Tolbutamide and Labetalol internal standard); the reaction plate was shaken on a shaker for 10 min; then centrifuged at 4000 rpm at 4° C. for 20 min; 200 μL of the supernatant was added to 100 μL of water to dilute the samples; and the plate was sealed, shaken for 10 min to mix well, and then analyzed by LC/MS/MS.
(§5) The rate of production of metabolites of each probe substrate was used to reflect the activity of each CYP isozyme. The activity of each isozyme in the solvent control incubation system without test article or positive inhibitor was set to be 100%, and the rate of production of metabolites of the probe substrate with different concentrations of test article or positive inhibitor was divided by the rate of production of metabolites of the solvent control samples, and then multiplied by 100% as the percentage of residual activity of each isozyme. The IC50 values of the test article and each positive inhibitor were calculated by nonlinear regression analysis using three or four parameters in XL fit software with the percentage of residual activity as the vertical coordinate and the inhibitor concentration as the horizontal coordinate. The IC50 values were labeled as “>50 μM” when the IC50 fitted by XL fit software was greater than the highest administered concentration (50 μM) or when the IC50 could not be fitted.

CYP2C19 = target: T5, CYP2C19 (Homo sapiens, UniProt P33261); assay: as above; assay type: in vitro ADME; conditions: read-out: Cytochrome P450 isoenzyme inhibitory concentration CYP2C19
T5 construct: from tissue; host or cells: human liver microsomes
T5 sequence (P33261 whole entry): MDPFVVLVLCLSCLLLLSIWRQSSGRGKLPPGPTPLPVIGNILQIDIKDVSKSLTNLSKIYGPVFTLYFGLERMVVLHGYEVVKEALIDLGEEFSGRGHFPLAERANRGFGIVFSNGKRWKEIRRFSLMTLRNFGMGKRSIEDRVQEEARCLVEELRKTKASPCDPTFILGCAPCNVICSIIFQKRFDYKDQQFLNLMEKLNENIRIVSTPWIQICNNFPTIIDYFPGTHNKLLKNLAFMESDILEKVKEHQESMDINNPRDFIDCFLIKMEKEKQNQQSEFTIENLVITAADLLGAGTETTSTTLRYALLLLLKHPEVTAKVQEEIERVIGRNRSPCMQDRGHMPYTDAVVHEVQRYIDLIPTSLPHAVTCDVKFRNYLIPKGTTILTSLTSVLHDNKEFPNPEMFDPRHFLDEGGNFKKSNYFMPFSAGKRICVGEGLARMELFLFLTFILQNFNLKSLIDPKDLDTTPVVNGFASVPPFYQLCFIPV
Method: as §2, §3, §4, §5

CYP2C9 = target: T6, CYP2C9 (Homo sapiens, UniProt P11712); assay: as above; assay type: in vitro ADME; conditions: read-out: Cytochrome P450 isoenzyme inhibitory concentration CYP2C9
T6 construct: from tissue; host or cells: human liver microsomes
T6 sequence (P11712 whole entry): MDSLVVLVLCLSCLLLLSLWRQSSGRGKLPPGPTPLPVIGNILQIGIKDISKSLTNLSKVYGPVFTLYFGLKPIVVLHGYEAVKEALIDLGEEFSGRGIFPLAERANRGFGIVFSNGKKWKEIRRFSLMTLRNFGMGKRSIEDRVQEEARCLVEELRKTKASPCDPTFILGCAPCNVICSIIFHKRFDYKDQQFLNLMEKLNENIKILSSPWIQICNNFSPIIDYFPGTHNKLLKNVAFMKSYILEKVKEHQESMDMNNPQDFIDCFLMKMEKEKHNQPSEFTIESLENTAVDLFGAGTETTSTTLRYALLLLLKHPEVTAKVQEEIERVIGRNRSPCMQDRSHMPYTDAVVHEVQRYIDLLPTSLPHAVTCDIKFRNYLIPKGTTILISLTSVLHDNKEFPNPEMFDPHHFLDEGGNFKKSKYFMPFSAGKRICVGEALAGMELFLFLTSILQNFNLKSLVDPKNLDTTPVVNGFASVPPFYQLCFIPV
Method: as §2, §3, §4, §5

CYP2D6 = target: T7, CYP2D6 (Homo sapiens, UniProt P10635); assay: as above; assay type: in vitro ADME; conditions: read-out: Cytochrome P450 isoenzyme inhibitory concentration CYP2D6
T7 construct: from tissue; host or cells: human liver microsomes
T7 sequence (P10635 whole entry): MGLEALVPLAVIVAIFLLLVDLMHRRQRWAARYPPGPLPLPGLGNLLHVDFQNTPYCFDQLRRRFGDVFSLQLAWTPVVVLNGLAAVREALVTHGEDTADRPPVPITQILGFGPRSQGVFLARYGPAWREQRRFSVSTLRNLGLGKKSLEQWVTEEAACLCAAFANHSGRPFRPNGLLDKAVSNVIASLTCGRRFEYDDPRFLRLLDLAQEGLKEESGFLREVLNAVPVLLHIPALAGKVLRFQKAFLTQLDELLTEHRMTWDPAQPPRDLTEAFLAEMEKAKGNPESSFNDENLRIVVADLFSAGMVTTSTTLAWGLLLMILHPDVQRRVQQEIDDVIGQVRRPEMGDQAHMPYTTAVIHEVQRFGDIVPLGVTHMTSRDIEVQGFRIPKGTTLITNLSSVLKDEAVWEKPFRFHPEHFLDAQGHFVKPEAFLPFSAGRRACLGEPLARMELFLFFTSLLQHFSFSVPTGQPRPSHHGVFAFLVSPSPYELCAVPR
Method: as §2, §3, §4, §5

CYP3A4 = target: T8, CYP3A4 (Homo sapiens, UniProt P08684); assay: as above; assay type: in vitro ADME; conditions: read-out: Cytochrome P450 isoenzyme inhibitory concentration CYP3A4
T8 construct: from tissue; host or cells: human liver microsomes
T8 sequence (P08684 whole entry): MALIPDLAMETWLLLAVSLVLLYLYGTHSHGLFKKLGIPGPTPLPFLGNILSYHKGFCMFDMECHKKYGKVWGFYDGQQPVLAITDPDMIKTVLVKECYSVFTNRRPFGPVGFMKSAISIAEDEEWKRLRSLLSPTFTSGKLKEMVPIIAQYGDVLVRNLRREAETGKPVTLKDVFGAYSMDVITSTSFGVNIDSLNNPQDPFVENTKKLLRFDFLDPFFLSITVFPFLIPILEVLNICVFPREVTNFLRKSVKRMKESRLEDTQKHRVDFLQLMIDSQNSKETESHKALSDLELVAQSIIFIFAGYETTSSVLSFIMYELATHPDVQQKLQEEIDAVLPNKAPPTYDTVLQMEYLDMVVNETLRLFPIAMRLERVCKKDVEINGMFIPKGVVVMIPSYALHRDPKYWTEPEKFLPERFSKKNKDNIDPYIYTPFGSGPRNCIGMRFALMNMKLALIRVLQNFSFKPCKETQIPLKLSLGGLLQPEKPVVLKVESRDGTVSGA
Method: as §2, §3, §4, §5

Question: Which IC50 (EGFR (L858R/T790M/C797S)) does the source give for `Cc1cc2cc(n1)-c1cnn(C)c1OCCC[C@@H](C)CN1/C(=N/C2=O)Nc2ccc(N=S(C)(C)=O)c(Cl)c21` [WX-019] here?
Answer: 0.00355 µM

Question: What about the IC50 (EGFR (WT)) of the same compound?
Answer: 0.212 µM

Question: And the IC50 [1]?
Answer: 139 pM

Question: And the IC50 (CYP1A2)?
Answer: > 50 µM

Question: And the IC50 (CYP2C19)?
Answer: 3.4 µM

Question: And the IC50 (CYP2C9)?
Answer: 31 µM

Question: What about the IC50 (CYP2D6) of the same compound?
Answer: > 50 µM

Question: And the IC50 (CYP3A4)?
Answer: > 50 µM

Question: What does the source list for `Cc1cc2cc(n1)-c1cnn(C)c1OC[C@H]1CC[C@H](C1)CN1/C(=N/C2=O)Nc2ccc(N=S(C)(C)=O)cc21` (single isomer, unassigned) [WX-027A]?
Answer: IC50 (EGFR (L858R/T790M/C797S)): 0.00182 µM; IC50 (EGFR (WT)): 0.0558 µM; IC50 [1]: 93 pM; IC50 (CYP1A2): > 50 µM; IC50 (CYP2C19): 9.8 µM; IC50 (CYP2C9): 14 µM; IC50 (CYP2D6): > 50 µM; IC50 (CYP3A4): 20 µM
